From patent US10202377B2, “3-(1H-benzo[D]imidazol-2-yl)-1H-pyrazolo[3,4-C]pyridine and therapeutic uses thereof” (Samumed, LLC, priority 2014, dated 2019)

What was measured:
[1] = test system: primary human fibroblasts derived from IPF patients (LL29 cells); test: Inhibition of fibrosis (αSMA staining) in TGF-β1-treated primary human fibroblasts from IPF patients; assay type: cell-based; conditions: Fibroblast, 96 h, TGF-β1 20 ng/mL, 4 days
Protocol: The above synthesized compounds were screened using primary human fibroblasts (derived from IPF patients) treated with TGF-β1 to determine their ability to inhibit the fibrotic process.
Compound Screening: Each compound was dissolved in DMSO as a 10 mM stock and used to prepare compound source plates. […] LL29 cells were plated at 1,500 cells/well in 80 μl/well F12 medium supplemented with 1% Fetal Bovine Serum. One hour after addition of the cells, TGF-β1 (Peprotech; 20 ng/mL) was added to the plates to induce fibrosis (ref. 1 and 2 above). Wells treated with TGF-β1 and containing DMSO were used as controls. Cells were incubated at 37° C. and 5% CO2 for 4 days. Following incubation for 4 days, SYTOX green nucleic acid stain (Life Technologies [Thermo Fisher Scientific]) was added to the wells at a final concentration of 1 uM and incubated at room temperature for 30 min. Cells were then fixed using 4% formaldehyde (Electron Microscopy Sciences), washed 3 times with PBS followed by blocking and permeabilization using 3% Bovine Serum Albumin (BSA; Sigma) and 0.3% Triton X-100 (Sigma) in PBS. Cells were then stained with antibody specific to α-smooth muscle actin (aSMA; Abcam) (ref. 1 and 2 above) in 3% Bovine Serum Albumin (BSA; Sigma) and 0.3% Triton X-100 (Sigma) in PBS, and incubated overnight at 4° C. […] Dead or apoptotic cells were excluded from analysis based on positive SYTOX green staining. % of total cells positive for αSMA were counted in each well and normalized to the average of 11 wells treated with TGF-β1 on the same plate using Dotmatics' Studies Software. […] The EC50 values are reported.

[2] = test system: Wnt activity (Sp5-Luc reporter, SW480 colon carcinoma cells); test: Sp5-Luc Wnt reporter gene screening assay in SW480 colon carcinoma cells; conditions: Homo sapiens
Protocol: The screening assay for Wnt activity is described as follows.
SW480 colon carcinoma cells were transduced with a lentiviral vector expressing luciferase with a human Sp5 promoter consisting of a sequence of eight TCF/LEF binding sites. SW480 cells stably expressing the Sp5-Luc reporter gene and a hygromycin resistance gene were selected by treatment with 150 μg/ml of hygromycin for 7 days. These stably transduced SW480 cells were expanded in cell culture and used for all further screening activities. For Sp5-Luc reporter gene assays, the cells were plated at 10,000 cells/well in 96-well plates with growth medium containing 10% fetal calf serum and incubated overnight at 37° C. and 5% CO2. […] Compound transfer from serially diluted source plates to assay plates containing the cells was accomplished using a pintool (Multimek 96, Beckman equipped with V&P Scientific FP1S50H pins) based liquid handling protocol. This protocol used a slotted pin to transfer 50 nl of compound from a source plate well to an assay plate well containing 50 μl of cells in growth medium. […] Control wells received 50 nl of DMSO treatment for normalization and calculating IC50 values. The treated cells were incubated at 37° C. and 5% CO2 for an additional forty-two hours. Following incubation, the growth medium was removed and 50 μl of BrightGlo luminescence reagent (Promega) was added to each well of the 96-well assay plates. The plates were placed on an orbital shaker for 5 min and then luminescence was quantified on the Victor3 (Perkin Elmer) plate reader.

| SMILES | EC50 [1] [nM] | IC50 [2] [nM] |
| --- | --- | --- |
| CCCC(=O)Nc1cncc(-c2cc3c(-c4nc5c(-c6ccc(C)s6)cccc5[nH]4)n[nH]c3cn2)c1 [Compound 381, N-(5-(3-(4-(5-Methylthiophen-2-yl)-1H-benzo[d]imidazol-2-yl)-1H-pyrazolo[3,4-c]pyridin-5-yl)pyridin-3-yl)butyramide] | 79 | 21.5 |
| Fc1cccc(-c2cccc3[nH]c(-c4n[nH]c5cnc(-c6ccncc6)cc45)nc23)c1 [Compound 952, 3-(4-(3-Fluorophenyl)-1H-benzo[d]imidazol-2-yl)-5-(pyridin-4-yl)-1H-pyrazolo[3,4-c]pyridine] | 9990 | 53 |
| CC(=O)c1ccc(-c2cccc3[nH]c(-c4n[nH]c5cnc(-c6cncc(NC(=O)C7CCCCC7)c6)cc45)nc23)s1 [Compound 412, N-(5-(3-(4-(5-Acetylthiophen-2-yl)-1H-benzo[d]imidazol-2-yl)-1H-pyrazolo[3,4-c]pyridin-5-yl)pyridin-3-yl)cyclohexanecarboxamide] | 9180 | 150 |
| CCCCC(=O)Nc1cncc(-c2cc3c(-c4nc5c(-c6ccccn6)cccc5[nH]4)n[nH]c3cn2)c1 [Compound 148, N-(5-(3-(4-(Pyridin-2-yl)-1H-benzo[d]imidazol-2-yl)-1H-pyrazolo[3,4-c]pyridin-5-yl)pyridin-3-yl)pentanamide] | 225 | 177 |
| O=C(Nc1cncc(-c2cc3c(-c4nc5c(-c6ccccn6)cccc5[nH]4)n[nH]c3cn2)c1)c1ccccc1 [Compound 141, N-(5-(3-(4-(Pyridin-2-yl)-1H-benzo[d]imidazol-2-yl)-1H-pyrazolo[3,4-c]pyridin-5-yl)pyridin-3-yl)benzamide] | 39 | 411 |
| CC(C)(C)C(=O)Nc1cncc(-c2cc3c(-c4nc5c(-c6cc(F)cc(CNS(C)(=O)=O)c6)cccc5[nH]4)n[nH]c3cn2)c1 [Compound 424, N-(5-(3-(4-(3-Fluoro-5-(methylsulfonamidomethyl)phenyl)-1H-benzo[d]imidazol-2-yl)-1H-pyrazolo[3,4-c]pyridin-5-yl)pyridin-3-yl)pivalamide] | 51 | 19.9 |
| CC(C)(C)CC(=O)Nc1cncc(-c2cc3c(-c4nc5ccccc5[nH]4)n[nH]c3cn2)c1 [Compound 250, N-(5-(3-(1H-Benzo[d]imidazol-2-yl)-1H-pyrazolo[3,4-c]pyridin-5-yl)pyridin-3-yl)-3,3-dimethylbutanamide] | 258 | 183 |
| CN(C)CCOc1cncc(-c2cc3c(-c4nc5c(-c6cccc(F)c6)cccc5[nH]4)n[nH]c3cn2)c1 [Compound 947, 2-((5-(3-(4-(3-Fluorophenyl)-1H-benzo[d]imidazol-2-yl)-1H-pyrazolo[3,4-c]pyridin-5-yl)pyridin-3-yl)oxy)-N,N-dimethylethan-1-amine] | 9990 | 463 |
| O=C(Nc1cncc(-c2cc3c(-c4nc5c(-c6ccc(F)s6)cccc5[nH]4)n[nH]c3cn2)c1)C1CCC1 [Compound 358, N-(5-(3-(4-(5-Fluorothiophen-2-yl)-1H-benzo[d]imidazol-2-yl)-1H-pyrazolo[3,4-c]pyridin-5-yl)pyridin-3-yl)cyclobutanecarboxamide] | 9990 | 11.6 |
| CC(C)Nc1cncc(-c2cc3c(-c4nc5c(-c6cccnc6)cccc5[nH]4)n[nH]c3cn2)c1 [Compound 90, N-Isopropyl-5-(3-(4-(pyridin-3-yl)-1H-benzo[d]imidazol-2-yl)-1H-pyrazolo[3,4-c]pyridin-5-yl)pyridin-3-amine] | 9 | 13.9 |
| Cc1ccc(-c2cccc3[nH]c(-c4n[nH]c5cnc(-c6cncc(NC(=O)C(C)C)c6)cc45)nc23)s1 [Compound 373, N-(5-(3-(4-(5-Methylthiophen-2-yl)-1H-benzo[d]imidazol-2-yl)-1H-pyrazolo[3,4-c]pyridin-5-yl)pyridin-3-yl)isobutyramide] | 14 | 32.6 |
